Laboratory results taken from ChEMBL document CHEMBL5725380, “Substituted biaryl compound” (2017).

Molecular target: Prostaglandin E2 receptor EP2 subtype (Homo sapiens, UniProt P43116)
Experiment: Binding Assay: Measurement of EP2 receptor binding action was performed in accordance with the method of Abramovitz et al. (Biochimica et Biophysica Acta, 1483, 285 (2000)). A test compound dissolved in dimethyl sulfoxide (final concentration: 1.0 (V/V) %) and [3H]prostaglandin E2 (NET-428, manufactured by PerkinElmer) (final concentration: 10 nM) were added to a buffer solution (10 mM MES-KOH (pH 6.0), 10 mM MgCl2, 1 mM EDTA) in which 10 μg of a membrane fraction of HEK293 cells expressing human EP2 receptor (ES-562-M, manufactured by Euroscreen) was suspended, and then incubated at 30° C. for 60 minutes. The membrane fraction was recovered on glass fiber filter paper (GF/B, manufactured by Whatman) using a cell harvester (M30R, manufactured by Brandel), and after washing with a buffer solution (10 mM MES-KOH (pH 6.0), 10 mM MgCl2), radioactivity was measured with a liquid scintillation analyzer (2000CA, manufactured by Packard).
Assay type: cell membranes

Prostaglandin E2 receptor EP2 subtype, sequence (P43116 whole entry): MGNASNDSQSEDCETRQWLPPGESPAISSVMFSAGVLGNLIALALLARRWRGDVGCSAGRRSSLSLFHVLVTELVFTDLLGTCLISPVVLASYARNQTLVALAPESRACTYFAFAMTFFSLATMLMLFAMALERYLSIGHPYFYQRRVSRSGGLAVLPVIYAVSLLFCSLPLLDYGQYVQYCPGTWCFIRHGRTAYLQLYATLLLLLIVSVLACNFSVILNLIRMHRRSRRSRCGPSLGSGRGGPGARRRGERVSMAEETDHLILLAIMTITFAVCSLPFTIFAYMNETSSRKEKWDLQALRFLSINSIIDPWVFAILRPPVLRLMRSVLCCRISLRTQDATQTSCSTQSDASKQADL

Row | Ki [nM] | Structure (SMILES)
1 | > 10 | Cc1cnc(-c2ccc(CN(Cc3cccc(NCC(=O)O)n3)S(=O)(=O)c3ccccn3)cc2)s1
2 | 1.1 | CCCc1cccc(-c2ccc(CN(Cc3cccc(NCC(=O)O)n3)S(=O)(=O)c3ccccn3)cc2)c1
3 | 2.2 | Cc1cccc(-c2ccc(CN(Cc3cccc(NCC(=O)O)n3)S(=O)(=O)c3ccccn3)cc2)c1
4 | 1.2 | COc1cccc(-c2ccc(CN(Cc3cccc(NCC(=O)O)n3)S(=O)(=O)c3ccccn3)cc2)c1
5 | 1.7 | C=CCc1cccc(-c2ccc(CN(Cc3cccc(NCC(=O)O)n3)S(=O)(=O)c3ccccn3)cc2)c1

The next lines start with the molecule.

Row | Structure (SMILES) | Ki [nM]
6 | O=C(O)CNc1cccc(CN(Cc2ccc(-c3ccc(Cl)cc3)cc2)S(=O)(=O)c2cccnc2)n1 | > 10
7 | CCOc1ccccc1-c1ccc(CN(Cc2cccc(NCC(=O)O)n2)S(=O)(=O)c2ccccn2)cc1 | 2.6
8 | CC#Cc1cccc(-c2ccc(CN(Cc3cccc(NCC(=O)O)n3)S(=O)(=O)c3cccc(F)c3)cc2)c1 | 1.4
9 | CCOc1ccc(-c2ccc(CN(Cc3cccc(NCC(=O)O)n3)S(=O)(=O)c3ccccn3)cc2)cc1 | > 10
10 | CC#Cc1ccc(-c2ccc(CN(Cc3cccc(NCC(=O)O)n3)S(=O)(=O)c3ccccn3)cc2)cc1 | 6.8
11 | CCc1cccc(-c2ccc(CN(Cc3cccc(NCC(=O)O)n3)S(=O)(=O)c3ccccn3)cc2)c1 | 1.4
12 | CC#Cc1ccccc1-c1ccc(CN(Cc2cccc(NCC(=O)O)n2)S(=O)(=O)c2ccccn2)cc1 | 0.75
